The values below come from paper PMC6326523, “A high-throughput screen to identify novel small molecule inhibitors of the Werner Syndrome Helicase-Nuclease (WRN)” (PLoS ONE, 2019).

Holding throughout (format): biochemical
One experiment addresses T1, full-length BLM helicase (Homo sapiens, UniProt P54132).
T1 construct: Full length recombinant WRN [18], BLM [19], and FANCJ [20] proteins were purified from insect cells; made in house; host or cells: insect cells
The experiment is described as follows: Radiometric helicase assay, full-length BLM. The settings on record: for IC50: full-length BLM 0.1 nM, FORKR 0.5 nM. How it is done:
(§1) Fifteen μL of reaction buffer was added to a microcentrifuge tube followed by the addition of 1 μL of selected compounds (0.5–100 μM final concentration) or DMSO. One μL of WRN (full length), RECQ1, FANCJ, BLM or control was added to each reaction and incubated at room temperature for 15 min. Three μL of substrate (0.5 nM FORKR and 2 mM ATP final concentrations) were added to all reactions which were incubated at 37°C for 15 min. Reactions were stopped with the addition of 20 μL of 2X STOP dye containing EDTA, glycerol, bromphenol blue and xylene cyanol. Samples were electrophoresed for 1.5 hr at 200 V on a 12% non-denaturing PAGE gel in 1X TBE Buffer.
(§2) Three compounds identified from the cherry-picked set were tested for their effects on WRN exonuclease activity (20 nM) on the FORKR DNA substrate (1 nM) as well as DNA unwinding by full-length BLM (0.1 nM) and FANCJ (5 nM) helicases, which belong to the same Superfamily 2 as WRN [25], to assess their specificity for inhibition of WRN-catalyzed unwinding of the FORKR DNA substrate (0.5 nM). […] Nonetheless, these two compounds were also further tested in cell-based assays to assess their effects on proliferation.
(§3) Supplementary file pone.0210525.s005.TIF: S5 Fig Specificity of select WRN inhibitors for inhibition of other human helicases. (A) Quantitation of full-length BLM helicase (0.1 nM) activity on the FORKR DNA substrate (0.5 nM) with increasing concentration of each compound (0–100 μM). (B) Quantitation of full-length FANCJ (5 nM) helicase activity on the FORKR DNA substrate (0.5 nM) with increasing concentration of each compound (0–100 μM). (TIF) Click here for additional data file.

Another experiment concerns the target T2, full-length WRN helicase (Homo sapiens, UniProt Q14191).
T2 construct: Full length recombinant WRN [18], BLM [19], and FANCJ [20] proteins were purified from insect cells; made in house; host or cells: insect cells
In words: Radiometric helicase inhibitor assay, full-length WRN unwinding of FORKR DNA substrate.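 On all read-outs here: WRN preincubated with compound 15 min at room temperature, then unwinding run 15 min at 37 °C with 2 mM ATP, relative to WRN unwinding without compound (100%).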 The settings on record: FORKR 0.5 nM; for remaining activity at 50 µM: 50 μM compound, read-out: % Control WRN Helicase Activity.

Experiment [1] deals with T3, WRN helicase domain fragment (Homo sapiens, UniProt Q14191).
T3 construct: GST (N); made in house
In words: WRN-hel-f2 protocol qHTS confirmatory (15 compound confirmatory assay). The settings on record: NA = Not Active. How it is done: The structures of the members of this collection are available in the PubChem portal https://pubchem.ncbi.nlm.nih.gov/. For both the 350,000 small molecule collection and the LOPAC^1280 screens, 3 μL of GST-WRN500-946 or reaction buffer only were dispensed using a solenoid-valve nanoliter dispenser into a black 1536-well plate (Greiner). Twenty three nL of each serially diluted compound (0.08–50 μM for the LOPAC screen and 0.003–114 μM for the larger library screen) or control were added to each well using a Kalypsys pintool equipped with a 1536-pin array. Plates were incubated at room temperature for 15 min, followed by initiation of the reactions via the addition of 1 μL of substrate (100 nM FORKF and 2 mM ATP final concentrations). Plates were transferred to a ViewLux high-throughput CCD imager and fluorescence was measured in kinetic mode using an excitation filter of 525 nm and emission filter of 598 nm.

In experiment [2] the target is T4, full-length FANCJ helicase (Homo sapiens, UniProt Q9BX63).
T4 construct: Full length recombinant WRN [18], BLM [19], and FANCJ [20] proteins were purified from insect cells; made in house; host or cells: insect cells
T4 sequence (Q9BX63 1-1249): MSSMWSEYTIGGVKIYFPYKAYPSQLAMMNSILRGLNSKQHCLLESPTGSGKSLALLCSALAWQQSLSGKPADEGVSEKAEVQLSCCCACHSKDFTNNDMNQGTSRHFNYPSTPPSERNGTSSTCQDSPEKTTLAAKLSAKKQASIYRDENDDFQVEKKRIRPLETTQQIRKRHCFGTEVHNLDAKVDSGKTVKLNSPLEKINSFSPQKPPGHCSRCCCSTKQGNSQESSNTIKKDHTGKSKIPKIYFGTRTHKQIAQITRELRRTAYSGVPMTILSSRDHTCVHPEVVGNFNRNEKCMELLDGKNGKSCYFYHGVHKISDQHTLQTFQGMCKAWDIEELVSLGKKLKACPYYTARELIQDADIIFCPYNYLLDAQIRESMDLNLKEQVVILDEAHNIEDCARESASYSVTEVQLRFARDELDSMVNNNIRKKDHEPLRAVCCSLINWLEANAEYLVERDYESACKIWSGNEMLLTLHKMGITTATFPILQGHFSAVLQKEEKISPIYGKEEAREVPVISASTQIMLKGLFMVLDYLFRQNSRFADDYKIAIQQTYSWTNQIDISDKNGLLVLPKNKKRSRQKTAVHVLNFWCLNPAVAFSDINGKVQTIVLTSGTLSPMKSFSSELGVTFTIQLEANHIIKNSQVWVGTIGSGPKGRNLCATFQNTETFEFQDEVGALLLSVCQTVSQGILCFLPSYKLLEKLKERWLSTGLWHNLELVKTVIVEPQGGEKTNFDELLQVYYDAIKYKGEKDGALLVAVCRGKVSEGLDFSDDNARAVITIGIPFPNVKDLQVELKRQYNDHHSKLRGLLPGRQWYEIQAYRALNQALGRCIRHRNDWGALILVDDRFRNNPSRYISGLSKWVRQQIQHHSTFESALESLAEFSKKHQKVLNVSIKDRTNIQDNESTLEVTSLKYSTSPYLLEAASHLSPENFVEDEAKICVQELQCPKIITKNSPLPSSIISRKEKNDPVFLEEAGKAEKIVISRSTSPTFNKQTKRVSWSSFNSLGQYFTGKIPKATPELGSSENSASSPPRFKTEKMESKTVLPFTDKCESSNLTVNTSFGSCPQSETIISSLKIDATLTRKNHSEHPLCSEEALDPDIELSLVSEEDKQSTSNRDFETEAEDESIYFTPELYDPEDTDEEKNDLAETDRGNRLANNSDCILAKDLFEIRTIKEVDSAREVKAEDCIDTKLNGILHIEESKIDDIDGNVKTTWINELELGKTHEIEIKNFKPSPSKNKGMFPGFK
In words: Radiometric helicase assay, full-length FANCJ. The settings on record: for IC50: full-length FANCJ 5 nM, FORKR 0.5 nM. How it is done:
as §1, §2, §3

Experiment [3] deals with T5, full-length WRN exonuclease activity (Homo sapiens, UniProt Q14191).
T5 construct: Full length recombinant WRN [18], BLM [19], and FANCJ [20] proteins were purified from insect cells; made in house; host or cells: insect cells
In words: WRN exonuclease activity on radiolabeled FORKR DNA substrate. The following applies: WRN 20 nM, FORKR 1 nM; for Inhibition of WRN exonuclease activity: same concentration range as activity against WRN helicase. How it is done:
Fig 8 Specificity of selected compounds for inhibiting full-length WRN helicase activity. […] (B) Gel image of full-length WRN (20 nM) exonuclease activity on the radiolabeled FORKR DNA substrate (1 nM) in the presence of increasing concentrations of NCGC00029283-03, NCGC00063279-03 and NCGC00357377-01 (0–200 μM).
as §2

The mark [4] stands for this setting: radiometric assay, full-length WRN 1 nM, compound 0-100 μM, read-out: IC50.
[5] abbreviates: resynthesized or repurified compounds, full-length WRN, read-out: IC50 (μM): WRN.

SMILES strings stand for the structures. Where two headings read alike, the source gives them in different places.

T3 sequence (Q14191 500-946): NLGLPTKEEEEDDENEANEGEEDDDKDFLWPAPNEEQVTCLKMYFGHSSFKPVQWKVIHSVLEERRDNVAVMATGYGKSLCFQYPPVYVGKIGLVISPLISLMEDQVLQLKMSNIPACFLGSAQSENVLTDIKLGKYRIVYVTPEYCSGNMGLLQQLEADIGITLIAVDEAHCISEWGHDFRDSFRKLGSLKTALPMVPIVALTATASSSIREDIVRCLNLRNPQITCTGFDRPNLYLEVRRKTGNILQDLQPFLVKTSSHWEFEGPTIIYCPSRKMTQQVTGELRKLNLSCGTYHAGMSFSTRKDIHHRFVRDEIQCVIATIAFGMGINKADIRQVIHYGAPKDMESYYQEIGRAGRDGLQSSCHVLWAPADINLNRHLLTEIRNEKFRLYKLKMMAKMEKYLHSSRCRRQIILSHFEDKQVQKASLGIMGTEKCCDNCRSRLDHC
T1 sequence (P54132 whole entry): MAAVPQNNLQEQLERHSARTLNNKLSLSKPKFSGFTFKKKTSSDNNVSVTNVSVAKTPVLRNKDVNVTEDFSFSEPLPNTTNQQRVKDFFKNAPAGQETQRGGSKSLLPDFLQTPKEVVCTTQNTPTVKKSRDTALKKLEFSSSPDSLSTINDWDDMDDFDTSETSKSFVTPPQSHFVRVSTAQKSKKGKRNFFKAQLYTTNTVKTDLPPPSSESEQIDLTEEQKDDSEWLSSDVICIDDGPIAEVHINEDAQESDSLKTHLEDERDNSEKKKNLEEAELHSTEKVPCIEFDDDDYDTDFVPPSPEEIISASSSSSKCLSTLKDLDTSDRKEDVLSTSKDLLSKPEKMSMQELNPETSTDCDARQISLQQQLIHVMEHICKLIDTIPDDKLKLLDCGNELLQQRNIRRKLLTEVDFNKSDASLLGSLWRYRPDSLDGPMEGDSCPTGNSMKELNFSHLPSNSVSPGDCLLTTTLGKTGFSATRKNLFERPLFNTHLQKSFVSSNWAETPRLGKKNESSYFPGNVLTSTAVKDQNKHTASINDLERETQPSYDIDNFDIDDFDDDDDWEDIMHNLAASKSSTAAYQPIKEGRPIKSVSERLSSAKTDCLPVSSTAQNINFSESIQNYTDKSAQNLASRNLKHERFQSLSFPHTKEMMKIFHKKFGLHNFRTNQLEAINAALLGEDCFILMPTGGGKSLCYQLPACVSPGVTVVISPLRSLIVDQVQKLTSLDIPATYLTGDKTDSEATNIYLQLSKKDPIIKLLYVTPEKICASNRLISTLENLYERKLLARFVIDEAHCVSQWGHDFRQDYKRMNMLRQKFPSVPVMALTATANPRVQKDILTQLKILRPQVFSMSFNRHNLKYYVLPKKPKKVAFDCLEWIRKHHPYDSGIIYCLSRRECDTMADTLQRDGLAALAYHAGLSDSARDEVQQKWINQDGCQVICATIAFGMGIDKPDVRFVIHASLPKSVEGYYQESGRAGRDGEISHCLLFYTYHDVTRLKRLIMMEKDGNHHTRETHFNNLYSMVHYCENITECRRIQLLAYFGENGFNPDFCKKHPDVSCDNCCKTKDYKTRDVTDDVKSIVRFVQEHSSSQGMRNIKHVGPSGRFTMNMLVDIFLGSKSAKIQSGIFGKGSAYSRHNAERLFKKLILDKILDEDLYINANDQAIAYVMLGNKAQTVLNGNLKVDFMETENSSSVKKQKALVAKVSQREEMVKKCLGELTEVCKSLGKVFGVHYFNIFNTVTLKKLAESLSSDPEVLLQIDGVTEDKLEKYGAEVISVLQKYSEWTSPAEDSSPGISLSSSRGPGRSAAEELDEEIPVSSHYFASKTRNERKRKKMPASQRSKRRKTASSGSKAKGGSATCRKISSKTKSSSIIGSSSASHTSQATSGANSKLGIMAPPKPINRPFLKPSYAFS
T2 sequence (Q14191 whole entry): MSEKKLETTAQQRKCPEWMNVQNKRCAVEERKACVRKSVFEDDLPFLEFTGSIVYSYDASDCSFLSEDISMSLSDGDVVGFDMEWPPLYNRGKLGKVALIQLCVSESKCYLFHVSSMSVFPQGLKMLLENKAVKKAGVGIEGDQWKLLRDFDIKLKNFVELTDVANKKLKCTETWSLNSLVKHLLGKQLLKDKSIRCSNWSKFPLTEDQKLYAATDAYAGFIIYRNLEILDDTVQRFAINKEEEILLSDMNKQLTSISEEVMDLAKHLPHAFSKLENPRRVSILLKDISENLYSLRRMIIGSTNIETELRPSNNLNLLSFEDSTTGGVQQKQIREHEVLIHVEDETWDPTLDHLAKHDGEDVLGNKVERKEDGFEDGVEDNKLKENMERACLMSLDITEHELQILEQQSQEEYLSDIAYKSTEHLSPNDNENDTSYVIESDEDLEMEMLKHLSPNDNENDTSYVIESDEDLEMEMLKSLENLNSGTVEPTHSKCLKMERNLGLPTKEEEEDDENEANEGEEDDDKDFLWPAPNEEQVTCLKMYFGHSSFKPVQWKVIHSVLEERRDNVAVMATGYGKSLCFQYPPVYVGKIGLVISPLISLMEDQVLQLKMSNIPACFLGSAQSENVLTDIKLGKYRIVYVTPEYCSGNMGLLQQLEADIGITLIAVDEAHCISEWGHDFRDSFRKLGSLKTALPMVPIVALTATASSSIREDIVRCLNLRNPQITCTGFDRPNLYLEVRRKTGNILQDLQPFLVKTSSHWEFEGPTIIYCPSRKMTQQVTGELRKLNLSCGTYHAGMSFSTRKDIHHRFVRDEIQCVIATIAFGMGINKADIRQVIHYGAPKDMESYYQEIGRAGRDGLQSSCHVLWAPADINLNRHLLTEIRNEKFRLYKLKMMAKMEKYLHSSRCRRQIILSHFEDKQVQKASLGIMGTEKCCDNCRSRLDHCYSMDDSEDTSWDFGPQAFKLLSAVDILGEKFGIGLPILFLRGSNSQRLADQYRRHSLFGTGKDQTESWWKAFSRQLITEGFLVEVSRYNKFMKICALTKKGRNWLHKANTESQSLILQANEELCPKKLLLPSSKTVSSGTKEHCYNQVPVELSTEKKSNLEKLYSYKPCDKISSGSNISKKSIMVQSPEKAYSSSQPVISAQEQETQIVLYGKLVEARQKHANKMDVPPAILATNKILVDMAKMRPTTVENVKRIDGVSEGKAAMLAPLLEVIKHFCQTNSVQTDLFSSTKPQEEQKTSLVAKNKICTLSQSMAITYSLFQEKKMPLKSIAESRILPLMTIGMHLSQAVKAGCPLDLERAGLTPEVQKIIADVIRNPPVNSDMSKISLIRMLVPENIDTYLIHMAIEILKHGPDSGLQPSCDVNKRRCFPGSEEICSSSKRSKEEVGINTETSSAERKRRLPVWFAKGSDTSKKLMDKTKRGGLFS
T5 sequence (Q14191 whole entry): as above
Procedure for full-length WRN helicase: The compounds were tested at a single concentration of 50 μM in the radiometric helicase assay with full-length recombinant WRN protein (1 nM) and the FORKR DNA substrate (0.5 nM) as described in the Materials and Methods section.
For each compound, we performed titrations over a wide range of concentrations with a fixed concentration of full-length WRN protein (1 nM), and quantitated unwinding as a percentage of full-length WRN unwinding of the FORKR DNA substrate (0.5 nM) in the absence of compound (Fig 6A and 6B, S3 Fig). […] In addition to determining an IC50 value for each compound, we also conducted helicase assays to determine the reversibility of inhibition by each compound tested. […] The reaction was diluted 100-fold with the addition of DNA substrate (0.5 nM final concentration) and ATP (2 mM final concentration) and unwinding was measured (Fig 7A–7D, S4 Fig). Inhibition was either classified as reversible, partially reversible, minimally reversible, or irreversible based on the ability of helicase activity to recover after dilution of the compound 100-fold.

Take `Cc1ccc(-c2csc(NS(=O)(=O)c3cccc(F)c3)n2)o1` [MLS002251300-02]: the “IC50 for WRN helicase inhibition fold less than that observed for BLM” value on full-length BLM helicase (WRN vs BLM) came to 2.5 fold. Further, the half-inhibitory concentration (IC50) turned out to be 13 ± 2.6 µM on full-length BLM helicase; 4 µM at full-length WRN helicase (setting [4]); 5 ± 1.4 µM at full-length WRN helicase (setting [5]); 20 µM in experiment [1]; 28.5 ± 2 µM in experiment [2]. In addition, the remaining activity at 50 µM at full-length WRN helicase (full-length WRN 1 nM) was 1%. For the same compound, the “IC50 for WRN helicase inhibition fold less than that observed for FANCJ” value in experiment [2] (WRN vs FANCJ) amounted to 6 fold. For the same compound, the “Inhibition of WRN exonuclease activity at 200 μM” value (“Inhibition … at 200 μM” below) in experiment [3] is “some ability to inhibit”. In addition, the “Inhibition of WRN exonuclease activity” value in experiment [3] is reported as “unable to inhibit”.

With `COc1ccc2nc(O)c(-c3noc(-c4ccccc4)n3)cc2c1` [NCGC00063279-02], the IC50 at full-length BLM helicase was 46.1 µM; on full-length WRN helicase (setting [4]) it was 12 µM; at full-length WRN helicase (setting [5]) it was 13 ± 3.6 µM; in experiment [1], 2.5 µM; in experiment [2], 13.9 ± 2.6 µM. For the same compound, the remaining activity at 50 µM at full-length WRN helicase (full-length WRN 1 nM) turned out to be 18%. The “Inhibition … at 200 μM” value in experiment [3] was “some ability to inhibit”. In experiment [3], the “Inhibition of WRN exonuclease activity” value is “unable to inhibit”.

In the case of `COc1ccc2nc(O)c(-c3noc(-c4ccc(F)cc4)n3)cc2c1` [NCGC00029283-02], the concentration for half-maximal inhibition (IC50) against full-length BLM helicase worked out at 12.5 ± 1.8 µM; on full-length WRN helicase (setting [4]), 3 µM; on full-length WRN helicase (setting [5]), 2.3 ± 0.6 µM; in experiment [1] it was 0.45 µM; in experiment [2], 3.4 ± 0.5 µM. The remaining activity at 50 µM on full-length WRN helicase (full-length WRN 1 nM) was 6%. In addition, in experiment [3], the “Inhibition … at 200 μM” value was “some ability to inhibit”. In addition, the “Inhibition of WRN exonuclease activity” value in experiment [3] is reported as “unable to inhibit”.
